From patent publication US20150094260A1, “BUFFERED OPHTHALMIC COMPOSITIONS AND METHODS OF USE THEREOF” (ARAVA BIO-TECH LTD., priority 2010, published 2015)
“Also recorded” adds a separate entry of the source. Ends that are not written are not given here. * marks the point of attachment. Myristoyl = CCCCCCCCCCCCCC(=O)*

Key:
[1] = test system: ICAM-1 expression on endothelial cells and keratinocytes; macrophages, neutrophiles and T-cells at inflammation site; test: Anti-inflammatory effect of MPDY-1 in various in-vitro, ex-vivo and in-vivo models
Excerpt: This example discusses experiments showing the anti-inflammatory effect of MPDY-1.

[2] = test system: rabbit eyes subject to mechanical corneal wounding; test: Mechanical corneal wounding in rabbit eyes, corneal erosion area by fluorescein staining; assay type: in vivo
Experimental: Mechanical Corneal Ulcer Formation: A 6 mm corneal trephine (Grieshaber, Switzerland), preset for 50 micrometer in depth and a miniblade were used under a surgical microscope, to perform a uniform central corneal epithelial erosions, 6 mm in diameter and 50 micrometer in depth.
Rabbits were subjected to mechanical corneal wounding following the protocol discussed above. Eyes were treated by two daily ocular instillations of treatments during 3 successive days. Fluorescein staining was used to measure the corneal erosion area at twelve hours intervals starting 24 hrs post wounding and up to 72 hrs.
In addition to the time to heal parameter which is routinely assessed in wound healing studies, several publications established the importance of a new parameter, 50% reduction in wound size to serve as a robust predictor of complete wound closure. […] Results were therefore analyzed as percentage of eyes with 50% closure or higher at 24 hr post wounding (FIG. 2).
Rabbits were subjected to mechanical corneal wounding as discussed in Example 1. Eyes were treated by two daily ocular instillations of treatments during 3 successive days. Fluorescein staining was used to measure the corneal erosion area at six hours intervals.
Additional experiments were conducted using varying dosages of active agent. Rabbits were subjected to mechanical corneal wounding as described above. Eyes were treated by two daily ocular instillations of treatments during 3 successive days with 0.1 or 0.5 μg/eye/treatment of MPDY-1 alone in HOB-10 (referred to as HO/05/09) or in BSS or in combination with insulin 0.1-0.5 μg/eye/treatment. Rabbits received a total of daily dose from 0.1 μg (1 μg/ml) and up to 2 μg (20 μg/ml). Fluorescein staining was used to measure the corneal erosion area at twelve hours intervals starting 24 hrs post wounding and up to 72 hr.
Rabbits were subjected to mechanical corneal wounding as described above. […]

corneal wound in mice = test: Alkali burning of mouse corneas with Silver Nitrate applicators; assay type: in vivo; conditions: 1 μg/ml; for wound healing compared to control (Formula 1): 3 times daily for 3 or 7 days; for neutrophils recruitment to the corneal wound gap / pathological angiogenesis in corneal wound area / pathological corneal swelling / corneal re-epithelialization (wounds with full epidermal closure at 7 days post wounding) / inflammatory cells (lymphocytes) infiltration into the wound area: three daily instillations, Formula 1 as control; for neutrophils recruitment to the corneal wound gap / pathological angiogenesis in corneal wound area / pathological corneal swelling / inflammatory cells (lymphocytes) infiltration into the wound area: 3 days; for neutrophils recruitment to the corneal wound gap: FIG. 32; for pathological angiogenesis in corneal wound area: FIG. 33; for pathological corneal swelling: FIG. 34; for corneal re-epithelialization (wounds with full epidermal closure at 7 days post wounding): FIG. 30; for inflammatory cells (lymphocytes) infiltration into the wound area: FIG. 31
Experimental: Mice were subjected to chemical alkali burn wounding (using Silver Nitrate applicators for 10 seconds). Eyes were treated by three daily ocular instillations of treatments during 7 successive days with DAP-1 1 μg/ml, DIP-1 1 μg/ml and EPIP-2 1 μg/ml or with Formula 1 as control. Percentage of wounds achieved full epidermal closure at 7 days post wounding.
FIG. 31 is a histogram showing that DAP-1 1 μg/ml and DIP-1 1 μg/ml reduce lymphocytes infiltration in corneal wound gap in mice. Mice were subjected to chemical alkali burn wounding (using Silver Nitrate applicators for 10 seconds). Eyes were treated by three daily ocular instillations of treatments during 3 successive days with DAP-1 1 μg/ml, DIP-1 1 μg/ml and EPIP-2 1 μg/ml or with Formula 1 as control. Histological H&E staining of the corneas wounded area was performed and lymphocytes infiltration was arbitrarily assessed.
FIG. 32 is a histogram showing that DAP-1 1 μg/ml and EPIP-2 1 μg/ml decrease neutrophils recruitment to the corneal wound gap in mice. Mice were subjected to chemical alkali burn wounding (using Silver Nitrate applicators for 10 seconds). Eyes were treated by three daily ocular instillations of treatments during 3 successive days with DAP-1 1 μg/ml, DIP-1 1 μg/ml and EPIP-2 1 μg/ml or with Formula 1 as control. Histological sections of […] were stained with specific neutrophil staining kit (according to manufacturer). Neutrophils were counted per fixed field ×200 and represented by arbitrary units.
Mice were subjected to chemical alkali burn wounding (using Silver Nitrate applicators for 10 seconds). Eyes were treated by three daily ocular instillations of treatments during 3 successive days with DAP-1 1 μg/ml, DIP-1 1 μg/ml and EPIP-2 1 μg/ml or with Formula 1 as control. Histological H&E staining of the corneas wounded area has been performed. Blood vessels in entire corneal area were assessed and the results are represented graphically in objective arbitrary units.
FIG. 34 is a histogram showing that DIP-1 1 μg/ml and EPIP-2 1 μg/ml decrease pathological swelling of wounded cornea in mice. Mice were subjected to chemical alkali burn wounding (using Silver Nitrate applicators for 10 seconds). Eyes were treated by three daily ocular instillations of treatments during 3 successive days with DAP-1 1 μg/ml, DIP-1 1 μg/ml and EPIP-2 1 μg/ml or with Formula 1 as control. Histological H&E staining of the corneas wounded area has been performed and corneal swelling was objectively assessed. The results are presented in arbitrary units. […]
In another experiment, Alkali burning of corneas was performed on anaesthetized mice using Silver Nitrate applicators (75% Silver nitrate, 25% Potassium nitrate, Grafco, GFCO Inc.) for 10 seconds. The eyes were irrigated immediately with 5 ml sterile saline. Eyes were treated 3 times daily for 3 or 7 days with DAP-1 1 μg/ml, DIP-1 1 μg/ml and EPIP-2 1 μg/ml or Formula 1 as control.

| Substance | ICAM-1 expression on endothelial cells and keratinocytes [1] | activation of macrophages at inflammation site [1] | macrophages, neutrophiles and T-cells infiltration into inflammation site [1] | eyes completely healed without ocular scarring (full closure) at 48 hr post wounding ([2]; 48 hr, MPDY-1 0.1 or 0.5 μg/eye/treatment, two daily instillations, FIG. 11) [%] | time within which all treated eyes reached full closure ([2]; post wounding, FIG. 11) [h] | closure of ocular injury at 24 h post wounding ([2]; versus Control (standard of care ocular buffer), two daily instillations, FIG. 9) [%] | wound healing compared to control (Formula 1) (corneal wound in mice) | neutrophils recruitment to the corneal wound gap (corneal wound in mice) | pathological angiogenesis in corneal wound area (corneal wound in mice) | pathological corneal swelling (corneal wound in mice) | corneal re-epithelialization (wounds with full epidermal closure at 7 days post wounding) (corneal wound in mice) | inflammatory cells (lymphocytes) infiltration into the wound area (corneal wound in mice) |
| --- | --- | --- | --- | --- | --- | --- | --- | --- | --- | --- | --- | --- |
| MPDY-1: N-myristoylated peptide defined by SEQ ID NO: 2 (Phe-Ala-Arg-Lys-Gly-Ala-Leu-Arg-Gln), PKC-α inhibitor; tested in BSS (Myristoyl-FARKGALRQ) | attenuate ICAM-1 expression on endothelial cells and keratinocytes | attenuate activation of macrophages at inflammation site | inhibit macrophages, neutrophiles and T-cells infiltration into inflammation site | 30 | ≤ 72 | 60 | – | – | – | – | – | – |
| H-Pro-Tyr-Ile-Ala-Leu-Asn-Val-Asp-OH (H-PYIALNVD-OH) [EPIP-2] | – | – | – | – | – | – | wound healing enhancement | more potent in decreasing specific neutrophils recruitment | reduce angiogenesis in corneal wound gap | normalization in pathological corneal swelling | promote re-epithelialization of corneal wound | – |
| Myristoyl-Ser-Phe-Asn-Ser-Tyr-Glu-Leu-Gly-Ser-Leu-OH (Myristoyl-SFNSYELGSL-OH; SMILES CCCCCCCCCCCCCC(=O)N[C@@H](CO)C(=O)N[C@@H](Cc1ccccc1)C(=O)N[C@@H](CC(N)=O)C(=O)N[C@@H](CO)C(=O)N[C@@H](Cc1ccc(O)cc1)C(=O)N[C@@H](CCC(=O)O)C(=O)N[C@@H](CC(C)C)C(=O)NCC(=O)N[C@@H](CO)C(=O)N[C@@H](CC(C)C)C(=O)O) [DIP-1] | – | – | – | – | – | – | wound healing enhancement | – | reduce angiogenesis in corneal wound gap | normalization in pathological corneal swelling | more potent; also recorded: promote re-epithelialization of corneal wound | excelled in reducing inflammatory cells infiltration into the wound area |
| H-Met-Arg-Ala-Ala-Glu-Ala-Ala-Ala-Ala-Glu-Pro-Met-OH (H-MRAAEAAAAEPM-OH) [DAP-1] | – | – | – | – | – | – | wound healing enhancement | more potent in decreasing specific neutrophils recruitment | reduce angiogenesis in corneal wound gap | – | promote re-epithelialization of corneal wound | excelled in reducing inflammatory cells infiltration into the wound area |
